Several values for one entry are separate records, joined by “and”; a condition that tells them apart may be missing. Equal entries are not always repeated. Entries after “also recorded” stand apart in the source; their conditions may differ.
Experiments:
[1] = Plasma PLP increment in critically ill patients on hyperalimentation and additional PN / alleviation of B6 depletion; type: in vivo
Description: A direct inverse correlation exists between the degree of B6 depletion of critically ill patients and their chances of survival. Medical and surgical complication such as shock, hepatic failure, infection and sepsis, wound dehiscence, incisional hernia, aminoglycoside induced renal failure and impaired skin and mucosal regeneration, hematopoiesis, hormone production and wound repair; multi-organ dysfunction, respiratory distress and also severe depression are substantially more frequent in B6 deficient patients. These conditions are, inter alia, causally related to impairment of immune function, collagen and elastin cross-linking and polyamine synthesis and accumulation. […] However, the correctness or otherwise of any explanations given or mechanisms postulated is not to limit the scope of the invention or to be relevant to the inventive merits of the invention as claimed.

[2] = test system: estrogen side effects (tryptophane metabolism); assay: Counteracting side effects of elevated estrogen (PMS, OC users); type: in vivo, patients
[3] = test system: PN-oxidase deficiency; assay: Response of patients with reduced PN-oxidase activity; type: in vivo
[4] = test system: anemia / haemoglobin formation; assay: Treatment of anemias; type: in vivo, patients; settings: cases where conventional therapy is ineffective, pyridoxine refractory anaemias
[5] = test system: Babesia canis; assay: Example 4: clinical trials on dogs with B. canis infection; type: in vivo
Description: Babesia canis infection, better known as "biliary fever", is a severe and frequently fatal disease in dogs. It is a protozoal disease involving large-scale destruction of erythrocytes (red blood cells) and loss of haemoglobin. Double blind trials were carried out on two groups of dogs presented to the clinic for treatment of severe B. canis infections. Upon admission, all animals were recumbent with fever, jaundice, and accelerated heart and respiratory rate. All animals were given standard treatment, which consisted of post surgical drip, doxycycline, trypan blue, hepavet, electrolytes and glucose. In the experimental group, a solution of PL was added to the drip (electrolytes, glucose) given to the animals. In the control group, saline was given to replace the PL solution.
The PL solution according to the invention was made up as follows (per vial):
Experimental animals: PL solution according to the invention was given with the drip in such a manner that each patient received 50mg of pyridoxal over a 12 h period. Each animal received only one such course of treatment.
These received saline instead of PL solution under similar conditions. Control animals were selected to resemble experimental animals as closely as possible in respect of race and initial haemoglobin concentration.
**E: denotes experimental animals C: denotes controls, E: denotes changes
per day during the period between the first two series of measurements of
the parameters listed. Normally these represent measurements obtained
immediately after admission (or 1 day later) and again 2 to 4 days later
after treatment has been started.
***Average changes for six animals in each group over the two periods of […]

[6] = test system: Babesia canis; assay: Example 4: further clinical trials on dogs with B-canis infection; type: in vivo
Description: The experiment was repeated with 13 dogs (10 inbred beagles and 3 other mongrels) randomly divided into an experimental and a control group. All animals were infected with Babesia canis by injection of blood from a splenectomised donor dog which led to the development of acute Babesiosis in approximately 3-5 days. All dogs were monitored twice daily until the haematocrit values fell to 0.15 l/l when treatment was started which in the case of all animals consisted of the following:
Electrolytes solution (number 2) for the first […], thereafter Post-Surgisol. Both fluids were administered by means of an intravenous jugular catheter at a rate of 80 ml/kg/24h.
Trypan blue (1%) 1 ml/kg intravenous once only. Berenil 3.5 mg/kg intramuscularly 7 days after the Trypan blue. Heparin, 25 IU/kg subcutaneously three times per day for the first 2 days.
Experimental animals, in addition, received pyridoxal in their infusions at a concentration of 50 mg/l for the entire duration of fluid therapy.
Before the start of treatment, a urine dipstick and sediment examination were performed as well as a complete clinical evaluation and faecal flotation to determine the presence of helminth ova.
Assessment: Temperature pulse and respiration were measured every 6 hours during the first 3 days and a subjective assessment of habitus (grade 1-4) and appetite (1-4) was also made at the same time.
Full haematological and biochemical assessment was performed daily.
Serum alkaline phosphatase determinations were made on days 1 and 3.
Additional trial parameters and measurements consisted of Astrup determinations (before treatment and again 24 hours later) and a ten day survival rate.
Samples for haematology were drawn in evacuated EDTA tubes and for serum chemistries into plain evacuated tubes (cephalic vein).
Plasma PLP and PL as well as RBC-PLP and PL values were determined by means of a HPLC procedure routinely used for human studies.

[7] = test system: E. Coli induced septic shock; assay: Protective effect in experimentally induced septic shock; type: in vivo, rats
Description: An E. Coli suspension was prepared and serially diluted to the point where an injection of 0.3 ml caused approximately 80% mortality in rats after 12 h. This solution was used as the challenging solution in the following experiment:
Two groups of 6 male rats each were used. The animals were carefully selected so that the average mass in both groups was 210 g (191-219 g in the control group; 194-224 g in the experimental group). A solution containing 43.8 mg/ml of pyridoxal was prepared for i/v and i/p injection. 0.8 ml of this solution afforded 1.0 m mol/kg of PL when injected into a 210 g rat.
At time 0 h, the control group received 0.3 ml saline and the experimental group 0.3 ml of the PL solution. After 1 h all animals in both groups were challenged with 0.3 ml i/v of the E. Coli suspension. Immediately thereafter, the control group received 0.5 ml saline and the experimental group 0.5 ml of the PL solution i/p.
Each entry represents 1 animal, 12 h denoting that the particular animal survived for the full observation period of 12 h. Other entries denote mortalities at the times indicated, e.g. 2 h inspection (all animals were inspected at 1 h intervals and mortalities counted).

[8] = test system: fibroblast cell cultures; assay: Example 27: cellular uptake in fibroblast cell cultures, intracellular PLP content; type: cell-based
Description: Fibroblast cell cultures were cultivated in the usual manner in a medium containing different concentrations of various B6 vitamers, and the intracellular […] content was determined.
When the extracellular PL concentration was 60 nM, intracellular PLP levels reached a concentration of 12 nmol/g cell protein. […] Moreover, when both PN and PL were included in the medium, intracellular PLP accumulation was decreased in comparison with PLP accumulation seen when PL alone (in equimolecular concentrations)was included in the medium.

[9] = experimental animals or humans; cited from earlier work
[10] = test system: lipid metabolism; settings: experimental animals; German patent application P37 05 549.6; cited from earlier work
[11] = compared with PN; cited from earlier work
[12] = test system: albumin; settings: plasma; cited from earlier work
[13] = test system: PNP-oxidase in bone marrow aspirate; assay: Conversion of pyridoxine by bone marrow aspirate (PNP-oxidase activity); type: cell-based; settings: immature cells
Description: To confirm the inability of immature cells to convert pyridoxine into pyridoxal and its phosphate, an aspirate of bone marrow was tested.

[14] = test system: glutamate-pyruvate-transaminase (GPT); assay: RBC GPT-activity before and after daily oral PN supplementation; type: in vivo, human; settings: RBC GPT-activity at day 0 and day 28, daily oral PN (10 mg)
Description: The enzyme glutamate-pyruvate-transaminase (GPT) is a PLP dependent enzyme present in RBC which can be used to assess the utilisation of PN by RBC. In the population, individuals may be divided into 3 different groups corresponding to 3 polymorphic forms of the enzyme (1-1, 25%; 1-2, 50%; 2-2, 25%.

[15] = man; cited from earlier work
[16] = test system: estrogen side effects (tryptophane metabolism); settings: cited from earlier work
[17] = test system: anemia / haemoglobin formation; settings: 50-200 mg PN/day, one case 600 mg/day; Merrill and Henderson; cited from earlier work
[18] = test system: PLP-phosphatases in red blood cells; assay: Inhibition of PLP-specific phosphatases of red blood cells; type: biochemical
[19] = average change for six experimental animals
[20] = change per day, individual animal, 50 mg pyridoxal over 12 h with drip
[21] = change per day, total of experimental group
[22] = patients destined to die, hyperalimentation and additional PN, even with 200mg/day

SMILES: Cc1ncc(CO)c(C=O)c1O [PL, pyridoxal]
- effectiveness to counteract B6 depletion ([1]; compared with PN, also patients who do not respond to PN): substantially more effective than PN
- effectiveness / effective dosage rate against side effects of estrogen ([2]; supplementation, particularly over prolonged periods, compared with pyridoxine): effective at dosage rates as low as a few mg/day; also recorded: far more effective
- response compared with PN [3]: respond much more satisfactorily
- stimulation of haemoglobin formation [4]: capable of stimulating the formation of haemoglobulin
- Hb change, average [5, 19]: 11.7 g/L
- MCHC change, average [5, 19]: -0.03 g/dlRC
- MCV change, average [5, 19]: 0.17 fL
- RCC change, average [5, 19]: 4.4e+11 L⁻¹
- WCC change, average [5, 19]: 4.52e+09 L⁻¹
- Hb (haemoglobin) change [5, 20]: 11.0 g/L and 12.8 g/L and 6.5 g/L and 9.5 g/L and 7.8 g/L and 24.8 g/L
- MCHC (mean corpuscular haemoglobin content) change [5, 20]: 3.8 g/dlRC and -1 g/dlRC and -2.5 g/dlRC and -1.7 g/dlRC and -0.5 g/dlRC and 2.5 g/dlRC
- MCV (mean corpuscular volume) change [5, 20]: -6 fL and 2 fL and 0 fL and 3 fL and 1 fL
- RCC (red cell count) change [5, 20]: 4.1e+11 L⁻¹ and 4.9e+11 L⁻¹ and 4.7e+11 L⁻¹ and 2.3e+11 L⁻¹ and 6.4e+11 L⁻¹
- WCC (white cell count) change [5, 20]: 3e+09 L⁻¹ and -8.4e+09 L⁻¹ and 2.5e+09 L⁻¹ and 3.1e+09 L⁻¹ and 1.05e+09 L⁻¹ and 1.79e+10 L⁻¹
- Hb change, total [5, 21]: 70 g/L
- MCHC change, total [5, 21]: -8.2 g/dlRC
- MCV change, total [5, 21]: 1 fL
- RCC change, total [5, 21]: 2.65e+12 L⁻¹
- WCC change, total [5, 21]: 2.715e+10 L⁻¹
- recovery of haemoglobin levels ([5]; experimental animals): amazing recovery of haemoglobin levels
- haematological differences to control group (haemoglobin, RCC, WCC) ([5]; experimental vs control): Large, significant differences
- mean corpuscular hemoglobin ([6]; day 5, experimental animals): statistically significantly increased
- mean corpuscular volume ([6]; day 5, experimental animals): statistically significantly increased
- clinical improvement ([6]; experimental group): definite clinical improvement
- deaths ([6]; experimental group, 50 mg/l in infusions, two died in control group): none
- reticulocyte count response ([6]; experimental vs control): responded quicker
- normablast count profile ([6]; first 3 days, continuous downward trend in controls): inverse trend
- alkaline phosphatase values ([6]; serum, day 1 to day 3, decreased in controls): large increase
- difference in survival rate ([7]; PL-supplemented vs control, 12 h): statistically significant difference in survival rate
- survival time ([7]; individual rat, 0.3 ml i/v 1 h before and 0.5 ml i/p after challenge, 12h = survived full period): 1 h and 3 h (3×) and 12 h (2×)
- intracellular PLP level ([8]; extracellular PL concentration 60 nM): 12 nmol/g cell protein
- intracellular PLP level, maximum value ([8]; extracellular PL concentration 600 nM): 120 nmol/g cell protein
- cellular uptake ([8]; further increase of extracellular concentration): saturable process
- effect of extracellular vitamer on intracellular PLP level ([8]; relative effectiveness of PL and PN): more effective than PN
- adverse effects [9]: No adverse effects
- lipid lowering effect [10]: unexpectedly strong lipid lowering effects
- in vitro stability [11]: far less stable

SMILES: Cc1ncc(COP(=O)(O)O)c(C=O)c1O [PLP, pyridoxal phosphate]
- accumulation of extracellular PLP by the cells [8]: not accumulated by the cells
- radioactivity in the intracellular fraction ([8]; incubation with radioactive PLP): very little radioactivity
- protein (albumin) binding compared with PL [12]: substantially more prone to becoming protein (albumin) bound than PL

SMILES: Cc1ncc(CO)c(CN)c1O [PM, pyridoxamine]
- response compared with PN [3]: respond much more satisfactorily

SMILES: Cc1ncc(CO)c(CO)c1O [PN, pyridoxine]
- increment in plasma PLP, generally [1, 22]: less than 10 nM
- increment in plasma PLP, occasionally [1, 22]: less than 1 nM
- side effects at high bolus dosage ([2]; high dosage levels (e.g. 200-400 mg daily)): produces side effects
- conversion of pyridoxine into pyridoxal and its phosphate [13]: incapable of converting PN into PLP or PL
- conversion of pyridoxine into pyridoxal and its phosphate ([13]; listed as pyridoxine): incapable of converting pyridoxine into pyridoxal
- slow responders among persons studied [14]: Approximately 20%
- rate of increase of intracellular PLP level ([8]; PN vs PL as extracellular source): increased much more slowly (and in a time dependent manner)
- effect of high concentrations on intracellular PLP accumulation ([8]; high concentrations of PN with PL): suppress intracellular PLP accumulation
- plasma half-life [15]: about 12 minutes
- dosage necessary for effect in PMS / estrogen side effects ([16]; bolus doses, daily): 200 to 400 mg/day
- effect on Tryp. metabolism and associated clinical symptoms ([16]; oral, OC users): repeatedly shown to normalise Tryp. metabolism
- lipid lowering effect [10]: only a weak lipid-lowering and regulating agent
- response rate in pyridoxine-responsive anemias [17]: fewer than half of the cases

SMILES: NCCCCNCCCN [spermidine]
- inhibition of PLP-specific phosphatases [18]: inhibited

SMILES: NCCCNCCCCNCCCN [spermine]
- inhibition of PLP-specific phosphatases [18]: inhibited

Reference: patent US5254572A, “Method and composition for supplementing vitamin B6 where the PN-PLP pathway is disturbed” (priority 1989, dated 1993)
